Test results reported in US11590139B2, “Substituted aminopurine compounds, compositions thereof, and methods of treatment therewith” (Signal Pharmaceuticals, LLC, priority 2014, dated 2023).

Tested on: Lox-IMVI melanoma cell line
Experiment: Lox-IMVI anti-proliferative assay (growth inhibition, Cell Titer-Glo)
Assay type: cell-based, human
Details: Homo sapiens; IC50 activity level in the cell-based Lox-IMVI anti-proliferative assay; read-out: Activity
Outline: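 Lox-IMVI cells in RPMI+10% FBS exposed 72 h at 37 °C to 10-point, 3-fold dilutions (0.5 nM–10 μM; 0.2% DMSO final), in duplicate. Viability by Cell Titer-Glo luminescence, with a t0 cell-number reading; data as % of DMSO control; IC50 from a four-parameter logistic fit.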

First: NC(=O)[C@H]1CC[C@@H](n2c(Nc3c(F)cc(F)cc3F)nc3cnc(NC4CCC(F)(F)CC4)nc32)CC1 [Example 288, (1s,4s)-4-(2-(4,4-difluorocyclohexylamino)-8-(2,4,6-trifluorophenylamino)-9H-purin-9-yl)cyclohexanecarboxamide]
Second: NC(=O)[C@H]1CC[C@@H](n2c(Nc3c(F)ccc(F)c3F)nc3cnc(NC4CCC(F)(F)CC4)nc32)CC1 [Example 239, (1s,4s)-4-(2-(4,4-difluorocyclohexylamino)-8-(2,3,6-trifluorophenylamino)-9H-purin-9-yl)cyclohexanecarboxamide]
The IC50 of the first is lower: 250 to 500 nM for the first, 500 to 1000 nM for the second.

First: NC(=O)[C@H]1CC[C@@H](n2c(Nc3c(F)cc(Cl)cc3F)nc3cnc(N[C@H]4CCOC4)nc32)CC1 [Example 242, (1R,4s)-4-(8-(4-chloro-2,6-difluorophenylamino)-2-((S)-tetrahydrofuran-3-ylamino)-9H-purin-9-yl)cyclohexanecarboxamide]
Second: NC(=O)[C@H]1CC[C@@H](n2c(Nc3c(F)cc(F)cc3F)nc3cnc(N[C@@H]4CCOC[C@H]4F)nc32)CC1 [Example 276, (1S,4s)-4-(2-((3S,4R)-3-fluorotetrahydro-2H-pyran-4-ylamino)-8-(2,4,6-trifluorophenylamino)-9H-purin-9-yl)cyclohexanecarboxamide]
The IC50 of the first is higher: 500 to 1000 nM for the first, under 250 nM for the second.

First: N#Cc1cc(F)c(Nc2nc3cnc(NC4CCOCC4)nc3n2[C@H]2CC[C@@H](C(N)=O)CC2)c(Cl)c1 [Example 308, (1s,4s)-4-(8-(2-chloro-4-cyano-6-fluorophenylamino)-2-(tetrahydro-2H-pyran-4-ylamino)-9H-purin-9-yl)cyclohexanecarboxamide]
Second: Cc1cc(F)cc(Cl)c1Nc1nc2cnc(NC3CCOCC3)nc2n1[C@H]1CC[C@@H](C(N)=O)CC1 [Example 74, (1s,4s)-4-(8-(2-chloro-4-fluoro-6-methylphenylamino)-2-(tetrahydro-2H-pyran-4-ylamino)-9H-purin-9-yl)cyclohexanecarboxamide]
The IC50 of the first is lower: under 250 nM for the first, over 1000 nM for the second.

First: NC(=O)[C@H]1CC[C@@H](n2c(Nc3c(F)cc(F)cc3Cl)nc3cnc(NC4CC5(COC5)C4)nc32)CC1 [Example 175, (1s,4s)-4-(2-(2-oxaspiro[3.3]heptan-6-ylamino)-8-(2-chloro-4,6-difluorophenylamino)-9H-purin-9-yl)cyclohexanecarboxamide]
Second: NC(=O)[C@H]1CC[C@@H](n2c(Nc3cc(F)c(Cl)cc3F)nc3cnc(NC4CCC(F)(F)CC4)nc32)CC1 [Example 238, (1s,4s)-4-(8-(4-chloro-2,5-difluorophenylamino)-2-(4,4-difluorocyclohexylamino)-9H-purin-9-yl)cyclohexanecarboxamide]
The IC50 of the first is lower: 500 to 1000 nM for the first, over 1000 nM for the second. The first is the more potent here.

`NC(=O)[C@H]1CC[C@@H](n2c(Nc3ccc(Cl)cc3Cl)nc3cnc(NC4CCC(F)(F)CC4)nc32)CC1` [Example 240, (1s,4s)-4-(8-(2,4-dichlorophenylamino)-2-(4,4-difluorocyclohexylamino)-9H-purin-9-yl)cyclohexanecarboxamide] and `NC(=O)[C@H]1CC[C@@H](n2c(Nc3c(Cl)cccc3Cl)nc3cnc(N[C@@H]4CCC[C@H](O)C4)nc32)CC1` [Example 349, (1S,4s)-4-(8-(2,6-dichlorophenylamino)-2-((1R,3S)-3-hydroxycyclohexylamino)-9H-purin-9-yl)cyclohexanecarboxamide] cannot be ordered by IC50: over 1000 nM for the first, over 1000 nM for the second.

`CC[C@@H](CO)Nc1ncc2nc(Nc3ccc(F)c(F)c3F)n([C@H]3CC[C@@H](C(N)=O)CC3)c2n1` [Example 151, (1R,4s)-4-(2-((S)-1-hydroxybutan-2-ylamino)-8-(2,3,4-trifluorophenylamino)-9H-purin-9-yl)cyclohexanecarboxamide] and `C[C@@H]1CC[C@@H](Nc2ncc3nc(Nc4c(F)ccc(F)c4F)n([C@H]4CC[C@@H](C(N)=O)CC4)c3n2)C[C@H]1O` [Example 359, (1S,4s)-4-(2-((1R,3R,4R)-3-hydroxy-4-methylcyclohexylamino)-8-(2,3,6-trifluorophenylamino)-9H-purin-9-yl)cyclohexanecarboxamide] cannot be ordered by IC50: over 1000 nM for the first, over 1000 nM for the second.

First: CS(=O)(=O)N1CCC(Nc2ncc3nc(Nc4c(Cl)cc(Cl)cc4Cl)n([C@H]4CC[C@@H](C(N)=O)CC4)c3n2)CC1 [Example 292, (1s,4s)-4-(2-(1-(methylsulfonyl)piperidin-4-ylamino)-8-(2,4,6-trichlorophenylamino)-9H-purin-9-yl)cyclohexanecarboxamide]
Second: C[C@@H](CO)Nc1ncc2nc(Nc3c(Cl)cc(Cl)cc3Cl)n([C@H]3CC[C@@H](C(N)=O)CC3)c2n1 [Example 165, (1R,4s)-4-(2-((S)-1-hydroxypropan-2-ylamino)-8-(2,4,6-trichlorophenylamino)-9H-purin-9-yl)cyclohexanecarboxamide]
The IC50 of the first is higher: 500 to 1000 nM for the first, 250 to 500 nM for the second.

In the case of `NC(=O)[C@H]1CC[C@@H](n2c(Nc3c(F)cccc3F)nc3cnc(N[C@H]4CC[C@H](O)C4)nc32)CC1` [Example 326, (1R,4s)-4-(8-(2,6-difluorophenylamino)-2-((1S,3S)-3-hydroxycyclopentylamino)-9H-purin-9-yl)cyclohexanecarboxamide], the IC50 is reported as over 1000 nM.

Same assay, conditions: Homo sapiens; Lox-IMVI anti-proliferative assay, IC50 activity level; read-out: Activity

Going from `NC(=O)[C@H]1CC[C@@H](n2c(Nc3c(Cl)cc(OC(F)(F)F)cc3Cl)nc3cnc(N[C@@H]4CCC[C@H](O)C4)nc32)CC1` [Example 595, (1S,4s)-4-(8-(2,6-dichloro-4-(trifluoromethoxy)phenylamino)-2-((1R,3S)-3-hydroxycyclohexylamino)-9H-purin-9-yl)cyclohexanecarboxamide] to `N#Cc1cc(Cl)c(Nc2nc3cnc(NC4CCCOCC4)nc3n2[C@H]2CC[C@@H](C(N)=O)CC2)c(Cl)c1` (stereo partly shown) [Example 555, (1s,4s)-4-(8-(2,6-dichloro-4-cyanophenylamino)-2-(oxepan-4-ylamino)-9H-purin-9-yl)cyclohexanecarboxamide], the IC50 falls from over 1000 nM to under 250 nM.

First: C[C@]1(C(N)=O)CC[C@H](n2c(Nc3c(Cl)cc(C#N)cc3Cl)nc3cnc(NC4CCCC4)nc32)CC1 [Example 485, (1r,4r)-4-(2-(cyclopentylamino)-8-(2,6-dichloro-4-cyanophenylamino)-9H-purin-9-yl)-1-methylcyclohexanecarboxamide]
Second: C[C@]1(C(N)=O)CC[C@H](n2c(Nc3c(F)cc(Cl)cc3F)nc3cnc(NC4CCOCC4)nc32)CC1 [Example 473, (1r,4r)-4-(8-(4-chloro-2,6-difluorophenylamino)-2-(tetrahydro-2H-pyran-4-ylamino)-9H-purin-9-yl)-1-methylcyclohexanecarboxamide]
The IC50 of the first is lower: 500 to 1000 nM for the first, over 1000 nM for the second.

Compound `NC(=O)[C@H]1CC[C@@H](n2c(Nc3c(F)cc(Cl)cc3Cl)nc3cnc(NC4CCCOCC4)nc32)CC1` (stereo partly shown) [Example 537, (1s,4s)-4-(8-(2,4-dichloro-6-fluorophenylamino)-2-(oxepan-4-ylamino)-9H-purin-9-yl)cyclohexanecarboxamide] has an IC50 of under 250 nM.

Same assay, conditions: Homo sapiens; Lox-IMVI melanoma cell line, anti-proliferative assay; read-out: Activity (IC50 activity level)

Compared with `Cc1ccc(S(=O)(=O)N2CCC[C@@H](Nc3ncc4nc(Nc5c(F)cc(C#N)cc5F)n([C@H]5CC[C@@H](C(N)=O)CC5)c4n3)C2)cc1` [Example 790, (1S,4s)-4-(8-(4-cyano-2,6-difluorophenylamino)-2-((R)-1-tosylpiperidin-3-ylamino)-9H-purin-9-yl)cyclohexanecarboxamide], `COC(=O)N1CCC[C@@H](Nc2ncc3nc(Nc4c(F)cc(C#N)cc4Cl)n([C@H]4CC[C@@H](C(N)=O)CC4)c3n2)C1` [Example 709, (R)-methyl 3-(9-((1s,4S)-4-carbamoylcyclohexyl)-8-(2-chloro-4-cyano-6-fluorophenylamino)-9H-purin-2-ylamino)piperidine-1-carboxylate] is lower in IC50: over 1000 nM for the first, 500 to 1000 nM for the second.

Compared with `C[C@]1(C(N)=O)CC[C@@H](n2c(Nc3c(F)cc(F)cc3Cl)nc3cnc(N[C@@H]4CCC[C@@H](O)C4)nc32)CC1` [Example 618, (1S,4s)-4-(8-(2-chloro-4,6-difluorophenylamino)-2-((1R,3R)-3-hydroxycyclohexylamino)-9H-purin-9-yl)-1-methylcyclohexanecarboxamide], `C[C@]1(C(N)=O)CC[C@@H](n2c(Nc3c(F)cc(Cl)cc3Cl)nc3cnc(N[C@H]4CCOC[C@H]4F)nc32)CC1` [Example 716, (1R,4s)-4-(8-(2,4-dichloro-6-fluorophenylamino)-2-((3S,4S)-3-fluorotetrahydro-2H-pyran-4-ylamino)-9H-purin-9-yl)-1-methylcyclohexanecarboxamide] is lower in IC50: 500 to 1000 nM for the first, under 250 nM for the second.

First: N#Cc1cc(F)c(Nc2nc3cnc(N[C@@H]4CCC(F)(F)C4)nc3n2[C@H]2CC[C@@H](C(N)=O)CC2)c(F)c1 [Example 697, (1S,4s)-4-(8-(4-cyano-2,6-difluorophenylamino)-2-((R)-3,3-difluorocyclopentylamino)-9H-purin-9-yl)cyclohexanecarboxamide]
Second: N#Cc1cc(F)c(Nc2nc3cnc(N[C@@H]4CCC[C@@H](O)C4)nc3n2[C@H]2CC[C@@H](C(N)=O)CC2)c(Cl)c1 [Example 685, (1S,4s)-4-(8-(2-chloro-4-cyano-6-fluorophenylamino)-2-((1R,3R)-3-hydroxycyclohexylamino)-9H-purin-9-yl)cyclohexanecarboxamide]
The IC50 of the first is lower: 250 to 500 nM for the first, 500 to 1000 nM for the second. The first is the more potent here.

Compared with `CC(C)OC(=O)N1CCC[C@@H](Nc2ncc3nc(Nc4c(F)cc(Cl)cc4F)n([C@H]4CC[C@@H](C(N)=O)CC4)c3n2)C1` [Example 773, (R)-isopropyl 3-(9-((1s,4S)-4-carbamoylcyclohexyl)-8-(4-chloro-2,6-difluorophenylamino)-9H-purin-2-ylamino)piperidine-1-carboxylate], `N#Cc1ccc(Nc2nc3cnc(NC4CCC(F)(F)CC4)nc3n2[C@H]2CC[C@@H](C(N)=O)CC2)c(Cl)c1Cl` [Example 695, (1s,4s)-4-(8-(2,3-dichloro-4-cyanophenylamino)-2-(4,4-difluorocyclohexylamino)-9H-purin-9-yl)cyclohexanecarboxamide] is higher in IC50: 500 to 1000 nM for the first, over 1000 nM for the second. The first is the more potent here.
